Laboratory results: EP3238720A1, “ANTI-METHANOGENIC COMPOSITIONS AND USES THEREOF” (DSM IP Assets B.V., priority 2016, dated 2017)
Read-outs that look alike come from different tables or passages of the source.

Tests used:
MCR (MCR-I) [1] = molecular target: T1, MCR (MCR-I) (Methanothermobacter marburgensis, UniProt P11558+P11560+P11562); format: biochemical, M. marburgensis; conditions: for Methane reduction: 0.1 µM 3-NOP vs no inhibitor
[2] = tested on: Methanosphaera stadtmanae; assay: Growth/methane production of methanogen cultures; format: cell-based; conditions: H2 and methanol (100 mM), after 2 days, maintained over 12 days
Experimental: (§1) The methanogens outlined in table 3 were grown in 5 mL of the respective culture medium at 37°C in 15-mL Hungate tubes sealed with butyl rubber septum and aluminum seals. The 8 mL gas phase was 80% H2/20% CO2 at 2 x 10^5 Pa pressure. In the case of M. stadtmanae and M. barkeri H2 and methanol (100 mM) was the energy source. Methanogens growth was followed by CH4 production using a flame ionization-detector GC (0.5 ml of gas from headspace, manual injection in the GC (HP Hewlett 5890, Packard Series II, Waldbronn, Germany) using a 1 mL Sample-Lock® syringe (Hamilton, Nevada, USA). The concentration of CH4 was determined using a standard curve generated by injecting different volumes of 99.9 % pure CH4 prior to and after the injection of samples. Three consecutive 5 mL batches of incubations were conducted. In each batch the following treatments were used in triplicate: (i) blanks, only media; (ii) controls, cultures in the absence of inhibitor; (iii) 3-NOP added to a final concentration of 0.5 µM, 5 µM, 50 µM, 100 µM, 250 µM and 500 µM. 3-NOP was added on day 2 after culture inoculation with 0.5 mL of an actively growing culture. The growth was measured over 12 days every 2 days coinciding with new pressurization of headspace to 2 bar with 80:20 H2:CO2 gas mixture. […] Table 3: Methanogens

[3] = tested on: Methanobrevibacter smithii; assay: Growth/methane production of methanogen cultures; format: cell-based; conditions: after 2 days, maintained over 12 days
Experimental: as §1

Methanosarcina barkeri = assay: Growth/methane production of methanogen cultures; format: cell-based; conditions: H2 and methanol (100 mM), after 2 days, maintained over 12 days
Experimental: as §1

[4] = tested on: Methanobacterium bryantii; assay: Growth/methane production of methanogen cultures; format: cell-based; conditions: after 2 days, maintained over 12 days
Experimental: as §1

Methanomicrobium mobile = assay: Growth/methane production of methanogen cultures; format: cell-based; conditions: after 2 days, maintained over 12 days
Experimental: as §1

[5] = tested on: Methanobrevibacter millerae; assay: Growth/methane production of methanogen cultures; format: cell-based; conditions: after 2 days, maintained over 12 days
Experimental: as §1

[6] = tested on: Methanothermobacter wolfeii; assay: Growth/methane production of methanogen cultures; format: cell-based; conditions: after 2 days, maintained over 12 days
Experimental: as §1

MCR (MCR-I) [7] = molecular target: T1, MCR (MCR-I); format: biochemical, M. marburgensis; conditions: 15 min at room temperature

T1 sequence (P11558 2-550 limits assumed): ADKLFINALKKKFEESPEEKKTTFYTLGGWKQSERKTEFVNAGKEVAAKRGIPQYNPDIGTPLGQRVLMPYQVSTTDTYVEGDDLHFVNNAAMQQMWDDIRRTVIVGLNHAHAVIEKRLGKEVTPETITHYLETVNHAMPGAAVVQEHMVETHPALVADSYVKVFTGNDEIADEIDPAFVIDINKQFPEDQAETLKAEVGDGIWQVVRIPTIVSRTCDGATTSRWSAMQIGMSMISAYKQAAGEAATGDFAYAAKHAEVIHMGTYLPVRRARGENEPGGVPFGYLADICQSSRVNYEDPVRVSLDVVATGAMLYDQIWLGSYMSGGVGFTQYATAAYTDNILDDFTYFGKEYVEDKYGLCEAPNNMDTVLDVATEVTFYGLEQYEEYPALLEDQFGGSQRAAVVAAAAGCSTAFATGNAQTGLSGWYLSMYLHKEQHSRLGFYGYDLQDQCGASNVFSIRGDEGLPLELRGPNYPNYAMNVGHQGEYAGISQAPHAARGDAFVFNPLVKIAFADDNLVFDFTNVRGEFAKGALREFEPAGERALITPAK
T1 sequence (P11560 2-443 limits assumed): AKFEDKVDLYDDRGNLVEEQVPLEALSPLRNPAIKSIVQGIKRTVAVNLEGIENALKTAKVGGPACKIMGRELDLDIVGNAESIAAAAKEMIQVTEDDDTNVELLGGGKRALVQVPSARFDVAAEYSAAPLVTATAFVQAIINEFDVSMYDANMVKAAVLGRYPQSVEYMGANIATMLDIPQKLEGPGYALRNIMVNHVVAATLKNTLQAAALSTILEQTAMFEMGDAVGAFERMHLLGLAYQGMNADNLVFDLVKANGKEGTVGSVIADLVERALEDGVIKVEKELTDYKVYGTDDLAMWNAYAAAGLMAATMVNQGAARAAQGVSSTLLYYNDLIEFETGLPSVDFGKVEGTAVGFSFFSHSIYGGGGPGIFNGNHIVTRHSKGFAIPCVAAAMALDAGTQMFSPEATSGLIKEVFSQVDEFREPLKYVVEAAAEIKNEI
T1 sequence (P11562 2-249 limits assumed): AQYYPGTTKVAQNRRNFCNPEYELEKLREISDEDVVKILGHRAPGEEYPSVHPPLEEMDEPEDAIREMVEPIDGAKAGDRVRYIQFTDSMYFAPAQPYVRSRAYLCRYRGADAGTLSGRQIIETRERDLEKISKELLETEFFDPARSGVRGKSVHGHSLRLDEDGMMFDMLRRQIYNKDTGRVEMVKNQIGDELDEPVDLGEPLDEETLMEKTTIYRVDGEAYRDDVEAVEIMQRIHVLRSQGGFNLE

O=[N+]([O-])OCCCO [3-NOP, 3-Nitrooxypropanol]
reduces the methane concentration and thus the MCR activity (MCR (MCR-I) [1]; 0.1 µM 3-NOP): about 50% | Methane reduction (MCR (MCR-I) [1]; 3min): -28% | Methane reduction (MCR (MCR-I) [1]; 6min): -38% | Methane reduction (MCR (MCR-I) [1]; 9min): -47% | Methane concentration (MCR (MCR-I) [1]; 0.1 µM 3-NOP, 3min, no inhibitor 0.095): 0.068 µM | Methane concentration (MCR (MCR-I) [1]; 0.1 µM 3-NOP, 6min, no inhibitor 0.132): 0.082 µM | Methane concentration (MCR (MCR-I) [1]; 0.1 µM 3-NOP, 9min, no inhibitor 0.163): 0.086 µM | lowest concentration of 3-NOP able to significantly decrease the growth/ methane production (>50%) [2]: 5 µM | lowest concentration of 3-NOP able to significantly decrease the growth/ methane production (>50%) [3]: 2.5 µM | lowest concentration of 3-NOP able to significantly decrease the growth/ methane production (>50%) (Methanosarcina barkeri): 50 µM | lowest concentration of 3-NOP able to significantly decrease the growth/ methane production (>50%) [4]: 1 µM | lowest concentration of 3-NOP able to significantly decrease the growth/ methane production (>50%) (Methanomicrobium mobile): 50 µM | lowest concentration of 3-NOP able to significantly decrease the growth/ methane production (>50%) [5]: 2.5 µM | lowest concentration of 3-NOP able to significantly decrease the growth/ methane production (>50%) [6]: < 1 µM | MCR activity was reduced (MCR (MCR-I) [7]; 10 µM of 3-NOP): 50% | inhibition of the enzyme (MCR (MCR-I) [7]; > 30 µM of 3-NOP): almost complete inhibition
